In ChEMBL document CHEMBL1148031, “Rational design of inhibitors of VirA-VirG two-component signal transduction” (Bioorg Med Chem Lett, 2007):

Tested on: Agrobacterium tumefaciens
Assay: Inhibition of acetosyringone-induced virB::lacZ expression in Agrobacterium tumefaciens A348/pSW209
Format: functional, organism-based

| IC50 [µM] | SMILES |
| --- | --- |
| > 200 | O=Cc1ccccc1C(=O)O |
| 25 | O=C1OC(O)c2ccccc21 (configuration not stated) |
| 40 | O=CC(=O)c1ccccc1 [PHENYLGLYOXAL] |
| > 200 | COc1cc(CC(=O)O)c(C=O)c(OC)c1 |
| > 200 | COc1cc(OC)c(C(C)=O)c(C(C)=O)c1 |
| 10 | CCCCC(=O)c1cc(OC)cc(OC)c1C=O |
| 41 | COc1ccc2c(c1)C(O)OC2=O (configuration not stated) |
| > 200 | COc1ccc(C=O)c(OC)c1 |
| > 200 | COc1cccc2c1C(O)OC2=O (configuration not stated) |
| 30 | COc1ccc(N(O)C(=O)C=O)c(O)c1 |
| > 200 | COc1ccc2c(c1)C(=O)OC2O (configuration not stated) |
| > 200 | COc1cc(OC)c(C(C)=O)c(C(=O)O)c1 |
| 25 | COc1cc(C=O)c(C(C)=O)c(OC)c1 |
| 25 | O=CC(=O)N(O)c1ccccc1 |
| > 200 | COc1cc(OC)c([N+](=O)[O-])c2c1C(O)OC2=O (configuration not stated) |
| > 200 | COc1cc(C=O)cc(OC)c1 |

| IC50 [µM] | SMILES |
| --- | --- |
| 35 | O=CC(=O)Nc1ccccc1 |
| < 1 | COc1ccc(N(OC)C(=O)C=O)c(O)c1 |
| > 100 | COc1cc(OC)c2c(c1O)C(=O)OC2O (configuration not stated) |
| 34 | COc1ccccc1C(=O)C=O |
| 25 | COc1cc(OC)c(C=O)c(C(C)=O)c1 |
| 8 | COc1cc(OC)c(C=O)c(C(=O)O)c1 |
| > 200 | COc1cc(OC)c2c(c1N)C(=O)OC2O (configuration not stated) |
| > 200 | CCCCC(=O)c1c(OC)cc(OC)cc1C(=O)O |
| 20 | CCCCC(=O)c1ccccc1C=O |
| > 200 | COc1cc(OC)c2c(c1NC(C)=O)C(=O)OC2O (configuration not stated) |
| 8 | CCOc1cc(OCC)c2c(c1)C(=O)OC2O (configuration not stated) |
| > 200 | COc1cccc2c1C(=O)OC2O (configuration not stated) |
| 10 | CCCCC(=O)c1c(C=O)cc(OC)cc1OC |
| 25 | CC(=O)c1ccccc1C=O |
| 25 | O=CC(=O)Oc1ccccc1 |
| > 400 | O=CCC(=O)N(O)c1ccccc1 |
